Assay [1] has as its target T1, CDK7 (Homo sapiens, UniProt P50613).
T1 construct: endogenous in cells; host or cells: Jurkat cells
As to the kind of experiment: Rescue of compound-induced CDK7 degradation in Jurkat cells (ligand and proteasome dependence), immunoblot. Type of assay: cell-based. As to conditions: for dependence of the induced CDK7 degradation: Jurkat cells, 1 μM compound for 4 h after 2 h pretreatment with competitor or pathway inhibitor; for rescue of the CDK7 degradation induced by bispecific compound 3 / rescue of the CDK7 degradation induced by bispecific compound 20: Jurkat cells pretreated 2 h (10 μM YKL-5-124, 10 μM DGY-05-180, 0.2 μM Bortezomib, 1 μM MLN4924); for rescue of the CDK7 degradation induced by bispecific compound 3: then 1 μM compound 3 for 4 h; for rescue of the CDK7 degradation induced by bispecific compound 20: then 1 μM compound 20 for 4 h. On the procedure:
(§1) Jurkat cells were treated with DMSO or 1 μM of compounds 1-26 for 6 hours. Cells were then lysed in radioimmunoprecipitation assay (RIPA) buffer (Sigma® Life Science) containing protease/phosphatase inhibitor cocktail (Roche). The protein concentrations were measured by bicinchoninic acid assay (BCA) analysis (Pierce™). Equal amounts of protein were resolved by 4-12% Tris-Base gels (Invitrogen™), and then transferred to the immunoblot polyvinylidene difluoride (PVDF) membrane (BioRad), and immunoblotted with primary antibodies against CDK7 (cell signaling) and glyceraldehyde 3-phosphate dehydrogenase (GAPDH) (Cell Signaling Technology®), and then immunoblotted with IRDye®800-labeled goat anti-rabbit immunoglobulin G (IgG) and IRDye®680-labeled goat anti-mouse IgG (LI-COR®) secondary antibodies. The membranes were detected on an Odyssey® CLx system.
Jurkat cells were pretreated with 10 μM YKL-5-124 (the parental compound and known CDK7 inhibitor), 10 μM DGY-05-180 (VHL ligand), 0.2 μM Bortezomib (a proteasome inhibitor available from, e.g., Millipore Sigma, Cat. No. 179324-69-7, Burlington, MA), and 1 μM MLN4924 (a neddylation inhibitor available from, e.g., MedChemExpress (MCE®), Cat. No. HY-70062, Monmouth Junction, NJ), for 2 h, and then treated with 1 μM compound 3 or 20 for 4 h. Cells were lysed and immunoblotted as described in Example 27 with antibodies to CDK7 and GAPDH. The structures of YKL-5-124, DGY-05-180, Bortezomib and MLN4924 are set forth below.

Assay [2] deals with T1, CDK7. The assay can be described thus: CDK7 degradation in Jurkat cells by immunoblot. The class given is cell-based. As to conditions: 1 μM compound, 6 hours, vs DMSO. On the procedure:
as §1
In general terms: In western blotting, separated proteins are transferred to a membrane and probed.

T1 sequence (P50613 2-346 limits assumed): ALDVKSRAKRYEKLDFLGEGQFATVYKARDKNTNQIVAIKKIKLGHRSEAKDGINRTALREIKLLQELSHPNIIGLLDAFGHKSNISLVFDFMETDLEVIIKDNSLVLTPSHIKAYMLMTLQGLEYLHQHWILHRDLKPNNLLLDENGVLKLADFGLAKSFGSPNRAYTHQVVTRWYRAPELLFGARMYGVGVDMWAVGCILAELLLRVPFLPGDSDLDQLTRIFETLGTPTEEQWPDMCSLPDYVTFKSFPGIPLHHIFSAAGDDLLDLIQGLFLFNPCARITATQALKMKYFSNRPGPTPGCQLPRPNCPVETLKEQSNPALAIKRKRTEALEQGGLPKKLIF
T1 sequence (P51946 whole entry partner): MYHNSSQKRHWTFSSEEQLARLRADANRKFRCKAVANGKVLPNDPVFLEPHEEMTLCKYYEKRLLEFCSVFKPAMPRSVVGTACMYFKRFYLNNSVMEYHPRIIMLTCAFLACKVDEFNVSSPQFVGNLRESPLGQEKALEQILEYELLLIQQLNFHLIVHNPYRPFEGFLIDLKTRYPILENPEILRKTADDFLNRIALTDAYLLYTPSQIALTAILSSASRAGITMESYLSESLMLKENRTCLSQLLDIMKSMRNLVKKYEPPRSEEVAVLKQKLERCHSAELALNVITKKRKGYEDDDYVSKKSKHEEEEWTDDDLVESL
T1 sequence (P51948 whole entry partner): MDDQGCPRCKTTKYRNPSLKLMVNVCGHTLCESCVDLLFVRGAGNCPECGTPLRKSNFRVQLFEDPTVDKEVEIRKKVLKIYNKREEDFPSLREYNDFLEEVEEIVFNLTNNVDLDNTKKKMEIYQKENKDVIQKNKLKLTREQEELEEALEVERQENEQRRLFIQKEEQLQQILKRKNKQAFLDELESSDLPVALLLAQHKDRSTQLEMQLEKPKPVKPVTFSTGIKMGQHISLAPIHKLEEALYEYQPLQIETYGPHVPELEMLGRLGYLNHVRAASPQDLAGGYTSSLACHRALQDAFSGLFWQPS

For the compound `Cc1ncsc1-c1ccc([C@H](C)NC(=O)[C@@H]2C[C@@H](O)CN2C(=O)[C@@H](NC(=O)CCCCNC(=O)c2ccc(C(=O)Nc3n[nH]c4c3CN(C(=O)N[C@H](CN(C)C)c3ccccc3)C4(C)C)cc2)C(C)(C)C)cc1` [Compound 20, N^1-(5-(((S)-2-(dimethylamino)-1-phenylethyl)carbamoyl)-6,6-dimethyl-1,4,5,6-tetrahydropyrrolo[3,4-c]pyrazol-3-yl)-N^4-(5-(((S)-1-((2S,4R)-4-hydroxy-2-(((S)-1-(4-(4-methylthiazol-5-yl)phenyl)ethyl)carbamoyl)pyrrolidin-1-yl)-3,3-dimethyl-1-oxobutan-2-yl)amino)-5-oxopentyl)terephthalamide], the “dependence of the induced CDK7 degradation” value at CDK7 [1] was “both ligand- and proteasome-dependent”. Further, the “degradation of CDK7 (immunoblot)” value on CDK7 [2] is “induced the degradation of CDK7”.
Turning to `CC(C)C[C@H](NC(=O)[C@H](Cc1ccccc1)NC(=O)c1cnccn1)B(O)O` [Bortezomib], at CDK7 [1], the “rescue of the CDK7 degradation induced by bispecific compound 3” value (“rescue … by bispecific compound 3” below) is “rescued the CDK7 degradation” and the “rescue of the CDK7 degradation induced by bispecific compound 20” value (“rescue … by bispecific compound 20” for short) was “rescued the CDK7 degradation”.
On to `CN(C)C[C@@H](NC(=O)N1Cc2c(NC(=O)c3ccc(C(=O)NCCCCCNc4ccc5c(c4)C(=O)N(C4CCC(=O)NC4=O)C5=O)cc3)n[nH]c2C1(C)C)c1ccccc1` (stereo partly drawn) [Compound 21, N^1-(5-(((S)-2-(dimethylamino)-1-phenylethyl)carbamoyl)-6,6-dimethyl-1,4,5,6-tetrahydropyrrolo[3,4-c]pyrazol-3-yl)-N^4-(5-((2-(2,6-dioxopiperidin-3-yl)-1,3-dioxoisoindolin-5-yl)amino)pentyl)terephthalamide], for which, on CDK7 [2], the “degradation of CDK7 (immunoblot)” value was “induced the degradation of CDK7”.
Still for that read-out and setting: in the case of `Cc1ncsc1-c1ccc([C@H](C)NC(=O)[C@@H]2C[C@@H](O)CN2C(=O)[C@@H](NC(=O)CCCCCNC(=O)c2ccc(C(=O)Nc3n[nH]c4c3CN(C(=O)N[C@H](CN(C)C)c3ccccc3)C4(C)C)cc2)C(C)(C)C)cc1` [Compound 12, N^1-(5-(((S)-2-(dimethylamino)-1-phenylethyl)carbamoyl)-6,6-dimethyl-1,4,5,6-tetrahydropyrrolo[3,4-c]pyrazol-3-yl)-N^4-(6-(((S)-1-((2S,4R)-4-hydroxy-2-(((S)-1-(4-(4-methylthiazol-5-yl)phenyl)ethyl)carbamoyl)pyrrolidin-1-yl)-3,3-dimethyl-1-oxobutan-2-yl)amino)-6-oxohexyl)terephthalamide] it was “induced the degradation of CDK7”.
Turning to `NS(=O)(=O)OC[C@@H]1C[C@@H](n2ccc3c(N[C@H]4CCc5ccccc54)ncnc32)C[C@@H]1O` [MLN4924], at CDK7 [1], the “rescue … by bispecific compound 3” value is recorded as “rescued the CDK7 degradation” and the “rescue … by bispecific compound 20” value is on record as “rescued the CDK7 degradation”.
As for `CN(C)C[C@@H](NC(=O)N1Cc2c(NC(=O)c3ccc(C(=O)NCCCCC#Cc4cccc5c4C(=O)N(C4CCC(=O)NC4=O)C5=O)cc3)n[nH]c2C1(C)C)c1ccccc1` (stereo partly drawn) [Compound 7, N^1-(5-(((S)-2-(dimethylamino)-1-phenylethyl)carbamoyl)-6,6-dimethyl-1,4,5,6-tetrahydropyrrolo[3,4-c]pyrazol-3-yl)-N^4-(6-(2-(2,6-dioxopiperidin-3-yl)-1,3-dioxoisoindolin-4-yl)hex-5-yn-1-yl)terephthalamide], the “degradation of CDK7 (immunoblot)” value on CDK7 [2] is on record as “induced the degradation of CDK7”.
On the same count and under the same terms, in the case of `CN(C)C[C@@H](NC(=O)N1Cc2c(NC(=O)c3ccc(NC(=O)CCCCCCCCCCOc4cccc5c4C(=O)N(C4CCC(=O)NC4=O)C5=O)cc3)n[nH]c2C1(C)C)c1ccccc1` (stereo partly drawn) [Compound 10, N—((S)-2-(dimethylamino)-1-phenylethyl)-3-(4-(11-((2-(2,6-dioxopiperidin-3-yl)-1,3-dioxoisoindolin-4-yl)oxy)undecanamido)benzamido)-6,6-dimethyl-4,6-dihydropyrrolo[3,4-c]pyrazole-5(1H)-carboxamide] it was “induced the degradation of CDK7”; in that of `CN(C)C[C@@H](NC(=O)N1Cc2c(NC(=O)c3ccc(C(=O)NCCOCCOCCOCCNc4cccc5c4C(=O)N(C4CCC(=O)NC4=O)C5=O)cc3)n[nH]c2C1(C)C)c1ccccc1` (stereo partly drawn) [Compound 1, N1-(5-(((S)-2-(dimethylamino)-1-phenylethyl)carbamoyl)-6,6-dimethyl-1,4,5,6-tetrahydropyrrolo[3,4-c]pyrazol-3-yl)-N4-(2-(2-(2-(2-((2-(2,6-dioxopiperidin-3-yl)-1,3-dioxoisoindolin-4-yl)amino)ethoxy)ethoxy)ethoxy)ethyl)terephthalamide], “induced the degradation of CDK7”.
On the same count and under the same terms, in the case of `Cc1ncsc1-c1ccc([C@H](C)NC(=O)[C@@H]2C[C@@H](O)CN2C(=O)[C@@H](NC(=O)CCOCCOCCOCCNC(=O)c2ccc(C(=O)Nc3n[nH]c4c3CN(C(=O)N[C@H](CN(C)C)c3ccccc3)C4(C)C)cc2)C(C)(C)C)cc1` [Compound 25, N^1-(5-(((S)-2-(dimethylamino)-1-phenylethyl)carbamoyl)-6,6-dimethyl-1,4,5,6-tetrahydropyrrolo[3,4-c]pyrazol-3-yl)-N^4—((S)-14-((2S,4R)-4-hydroxy-2-(((S)-1-(4-(4-methylthiazol-5-yl)phenyl)ethyl)carbamoyl)pyrrolidine-1-carbonyl)-15,15-dimethyl-12-oxo-3,6,9-trioxa-13-azahexadecyl)terephthalamide] it was “induced the degradation of CDK7”.
As for `Cc1ncsc1-c1ccc([C@H](C)NC(=O)[C@@H]2C[C@@H](O)CN2C(=O)[C@@H](NC(=O)CCCNC(=O)c2ccc(C(=O)Nc3n[nH]c4c3CN(C(=O)N[C@H](CN(C)C)c3ccccc3)C4(C)C)cc2)C(C)(C)C)cc1` [Compound 3, N1-(5-(((S)-2-(dimethylamino)-1-phenylethyl)carbamoyl)-6,6-dimethyl-1,4,5,6-tetrahydropyrrolo[3,4-c]pyrazol-3-yl)-N4-(4-(((S)-1-((2S,4R)-4-hydroxy-2-(((S)-1-(4-(4-methylthiazol-5-yl)phenyl)ethyl)carbamoyl)pyrrolidin-1-yl)-3,3-dimethyl-1-oxobutan-2-yl)amino)-4-oxobutyl)terephthalamide], the “dependence of the induced CDK7 degradation” value on CDK7 [1] is “both ligand- and proteasome-dependent”. The “degradation of CDK7 (immunoblot)” value on CDK7 [2] is on record as “induced the degradation of CDK7”.
`Cc1ncsc1-c1ccc([C@H](C)NC(=O)[C@@H]2C[C@@H](O)CN2C(=O)[C@@H](NC(=O)CCCCCCCNC(=O)c2ccc(C(=O)Nc3n[nH]c4c3CN(C(=O)N[C@H](CN(C)C)c3ccccc3)C4(C)C)cc2)C(C)(C)C)cc1` [Compound 23, N^1-(5-(((S)-2-(dimethylamino)-1-phenylethyl)carbamoyl)-6,6-dimethyl-1,4,5,6-tetrahydropyrrolo[3,4-c]pyrazol-3-yl)-N^4-(8-(((S)-1-((2S,4R)-4-hydroxy-2-(((S)-1-(4-(4-methylthiazol-5-yl)phenyl)ethyl)carbamoyl)pyrrolidin-1-yl)-3,3-dimethyl-1-oxobutan-2-yl)amino)-8-oxooctyl)terephthalamide]: the “degradation of CDK7 (immunoblot)” value at CDK7 [2] is reported as “induced the degradation of CDK7”.
Consider `C=CC(=O)Nc1ccc(C(=O)Nc2n[nH]c3c2CN(C(=O)N[C@H](CN(C)C)c2ccccc2)C3(C)C)cc1` [YKL-5-124], for which, on CDK7 [1], the “rescue … by bispecific compound 3” value is recorded as “rescued the CDK7 degradation” and the “rescue … by bispecific compound 20” value is listed as “rescued the CDK7 degradation”.
Regarding `CN(C)C[C@@H](NC(=O)N1Cc2c(NC(=O)c3ccc(C(=O)NCCOCCOCCNc4cccc5c4C(=O)N(C4CCC(=O)NC4=O)C5=O)cc3)n[nH]c2C1(C)C)c1ccccc1` (stereo partly drawn) [Compound 26, N^1-(5-(((S)-2-(dimethylamino)-1-phenylethyl)carbamoyl)-6,6-dimethyl-1,4,5,6-tetrahydropyrrolo[3,4-c]pyrazol-3-yl)-N^4-(2-(2-(2-((2-(2,6-dioxopiperidin-3-yl)-1,3-dioxoisoindolin-4-yl)amino)ethoxy)ethoxy)ethyl)terephthalamide], the “degradation of CDK7 (immunoblot)” value at CDK7 [2] was “induced the degradation of CDK7”.
For `CN(C)C[C@@H](NC(=O)N1Cc2c(NC(=O)c3ccc(C(=O)NCCCCCCCCOc4cccc5c4C(=O)N(C4CCC(=O)NC4=O)C5=O)cc3)n[nH]c2C1(C)C)c1ccccc1` (stereo partly drawn) [Compound 9, N^1-(5-(((S)-2-(dimethylamino)-1-phenylethyl)carbamoyl)-6,6-dimethyl-1,4,5,6-tetrahydropyrrolo[3,4-c]pyrazol-3-yl)-N^4-(8-((2-(2,6-dioxopiperidin-3-yl)-1,3-dioxoisoindolin-4-yl)oxy)octyl)terephthalamide], at CDK7 [2], the “degradation of CDK7 (immunoblot)” value is given as “induced the degradation of CDK7”.
